# Peptide text beside a SMILES is read from it.
# Key:
# [1] = tested on: Staphylococcus aureus; assay: animal or person; type: in vivo; conditions: vs model control group
# Experimental: (§1) Animals in the blank administration group were not modeled, and inhaled a high-concentration polypeptide aerosol (0.48 mg/L) through nose and mouth every day. Animals in the blank control group were instilled with a 0.5 mL 0.9% sodium chloride injection through trachea. After the remaining groups were slightly anesthetized with ether, the model control group, the erythromycin group, the budesonide group, the low-dose polypeptide treatment group, and the high-dose polypeptide treatment group were instilled with a 1×10^8 CFU/mL mixed bacteria solution of Staphylococcus aureus, Streptococcus pneumoniae, and Escherichia coli through trachea, 0.5 mL/rat, respectively, and the blank control group was instilled with a 0.9% sodium chloride injection of a same volume.
# (§2) A specific modeling method was as follows: a rat was anesthetized by ether inhalation and lied on an anatomical plate at an angle of 30-45°, trachea of the rat was exposed under an otoscope, a long puncture needle was connected to a 1 mL syringe and inserted into the trachea, each rat was injected with 0.5 mL of mixed bacteria, the puncture needle was pulled out after the injection, the rat was still kept at the original tilt position for about 10 min, and the bacteria solution flowed into bronchus and alveoli due to gravity to cause infection, so as to induce a rat pneumonia model.
# (§3) Each group was administrated for the first time at 2 h after modeling. After the experiment begun, 7.16 mg/mL and 71.6 mg/mL peptide solutions were atomized into aerosol particles with target concentrations of 0.07 and 0.48 mg/L every day, and the animals in the low-dose peptide treatment group and the high-dose peptide treatment group (0.54 mg/kg and 3.7 mg/kg, corresponding to drug concentrations 0.07 and 0.48 mg/L respectively) inhaled the aerosol particles with corresponding concentrations through mouth and nose respectively for 7 consecutive days, 10 min/time, 3 times a day; the blank administration group (cumulative dose 22.2 mg/kg, corresponding to a drug concentration 0.48 mg/L) inhaled 0.48 mg/L peptide aerosol particles through mouth and nose every day for 7 consecutive days, 20 min/time, 3 times a day; the blank control group and the model control group inhaled a 0.9% sodium chloride solution for the same time according to the same method; the erythromycin group and the budesonide group were administrated with a 5 mg/mL erythromycin solution and a 0.05 mg/mL budesonide suspension respectively for the same time according to the same method; and body weight of each group was tested every day.
# (§4) Except the blank administration group, half animals of the remaining groups were randomly selected for lung function test, gross anatomy examination, and pathological test on D4 day, and lungs of 3 animals in each group were selected for bacteria culture and counting; and on D8 day, the remaining animals were subjected to lung function test, gross anatomy examination, and pathological test, and lungs of 3 animals in each group were selected for bacteria culture and counting (the blank control group and the blank administration group were not examined).
# (§5) Experimental steps of bacteria culture: except the blank administration group, six animals were randomly selected from each of the remaining groups (three animals were randomly selected from the first and last anatomies), left middle lobe lung tissues were taken, washed with 0.9% sodium chloride injection, added with double weight of 0.9% sodium chloride injection, and ground into homogenate, the homogenate was inoculated into a meat extract agar medium and cultured at 37° C. for 16 to 18 h, bacteria were isolated, and each isolated bacteria suspension was diluted to 10^−1, 10^−2, 10^−3, 10^−4, 10^−5, 10^−6, 10^−7 and 10^−8 according to 10 times gradient, namely, 9 mL normal saline plus 1 mL bacteria suspension was 10^−1, and so on. […]
# [2] = tested on: Streptococcus pneumoniae; assay: animal or person; type: in vivo; conditions: vs model control group
# Experimental: as §1, §2, §3, §4, §5
# [3] = tested on: Escherichia coli; assay: animal or person; type: in vivo; conditions: vs model control group
# Experimental: as §1, §2, §3, §4, §5
# [4] = tested on: SD rats; type: in vivo; design: MV: minute ventilation: unit not given here
# Experimental: as §1, §3, §4
# Experimental steps of gross anatomical examination and pathological test: the rats to be tested were anesthetized by intraperitoneal injection of 20% ethyl carbamate (dose 1000 mg/kg), and lung functions of the rats in each group were first tested with a lung function tester. Blood was collected from a ventral aorta, partial pressure of oxygen (PaO2) and partial pressure of carbon dioxide (PaCO2) in the blood of the rats were measured by using a blood gas analyzer, then left lower lobe lung tissues were taken, fixed in formalin, embedded, sectioned, and stained with HE, and pathological changes were observed under the light microscope.
# [5] = Body weight of pneumonia model rats during the experiment; type: in vivo, SD rats; conditions: FIG. 4
# Experimental: as §3
# [6] = D4, high-dose 3.7 mg/kg (0.48 mg/L aerosol) inhaled
# [7] = D4, low-dose 0.54 mg/kg (0.07 mg/L aerosol) inhaled
# [8] = D8, high-dose 3.7 mg/kg (0.48 mg/L aerosol) inhaled
# [9] = D8, low-dose 0.54 mg/kg (0.07 mg/L aerosol) inhaled
# [10] = D8, not modeled rats (blank administration group), cumulative dose 22.2 mg/kg (0.48 mg/L aerosol) inhaled 7 days
compound,measurement,setting,value
CSCC[C@H](N)C(=O)NCC(=O)N[C@@H](CCCNC(=N)N)C(=O)N[C@@H](Cc1ccccc1)C(=O)N[C@@H](CCCCN)C(=O)N[C@@H](CCCNC(=N)N)C(=O)N[C@@H](Cc1ccccc1)C(=O)N[C@@H](CCCNC(=N)N)C(=O)N[C@@H](CCCCN)C(=O)N[C@@H](CCCCN)C(=O)N[C@@H](Cc1ccccc1)C(=O)N[C@@H](CCCCN)C(=O)N[C@@H](CCCCN)C(=O)N[C@@H](CC(C)C)C(=O)N[C@@H](Cc1ccccc1)C(=O)N[C@@H](CCCCN)C(=O)N[C@@H](CCCCN)C(=O)N[C@@H](CC(C)C)C(=O)N[C@@H](CO)C(=O)O [polypeptide] (H-MGRFKRFRKKFKKLFKKLS-OH),Inhibition rate of staphylococcus aureus,[1]; [6],90.99%
same,Inhibition rate of staphylococcus aureus,[1]; [7],80.56%
same,Inhibition rate of staphylococcus aureus,[1]; [8],97.43%
same,Inhibition rate of staphylococcus aureus,[1]; [9],96.75%
same,Inhibition rate of streptococcus pneumoniae,[2]; [6],90.49%
same,Inhibition rate of streptococcus pneumoniae,[2]; [7],84.14%
same,Inhibition rate of streptococcus pneumoniae,[2]; [8],98.74%
same,Inhibition rate of streptococcus pneumoniae,[2]; [9],94.95%
same,Inhibition rate of escherichia coli,[3]; [6],92.16%
same,Inhibition rate of escherichia coli,[3]; [7],71.19%
same,Inhibition rate of escherichia coli,[3]; [8],96.57%
same,Inhibition rate of escherichia coli,[3]; [9],85.77%
same,FEV200 (forced expiratory volume),[4]; [10],3.77 ± 1.07 mL
same,FEV200/FVC,[4]; [10],93.81 ± 3.03%
same,FVC: forced vital capacity,[4]; [10],4.01 ± 1.08 mL
same,MV: minute ventilation,[4]; [10],0.20 ± 0.04
same,PaCO2: partial pressure of carbon dioxide,[4]; [10],33.09 ± 8.33 mmHg
same,PaO2: partial pressure of oxygen,[4]; [10],82.77 ± 11.87 mmHg
same,VT: tidal volume,[4]; [10],1.76 ± 0.25 mL
same,arterial blood pH,[4]; [10],7.46 ± 0.04
same,f: respiratory rate,[4]; [10],116 ± 15 time/min
same,Lung tissue microscopy,"[4]; D8, not modeled rats (blank administration group), cumulative dose 22.2 mg/kg aerosol inhaled",no obvious abnormality
same,"lung function indexes, and WBC, Neu, TNF-α, and IL-6 in alveolar lavage fluid compared with the blank control group",[4]; SD rats inhaled 22.2 mg/kg polypeptide solution through nose and mouth for 7 consecutive days,no significant difference
same,body weight compared with the blank control group,"[4]; not modeled rats (blank administration group), cumulative dose 22.2 mg/kg, FIG. 4",no significant difference
same,body weight compared with the model control group,[5]; high-dose 3.7 mg/kg (0.48 mg/L aerosol) inhaled,no significant difference
same,body weight compared with the model control group,[5]; low-dose 0.54 mg/kg (0.07 mg/L aerosol) inhaled,no significant difference

# From patent US20230330178A1, “USE OF POLYPEPTIDE IN DRUG FOR PREVENTING AND TREATING PNEUMONIA” (priority 2020, published 2023)
